Results: article PMC7155171, “Probing the Open Global Health Chemical Diversity Library for Multistage-Active Starting Points for Next-Generation Antimalarials” (ACS Infectious Diseases, 2020)
Read-outs that look alike come from different tables or passages of the source.

Tests used:
[1] = test system: HepG2-A16-CD81 hepatocytes; assay: HepG2 cytotoxicity screening (CellTiter-Glo); details: for IC50: HepG2-A16-CD81, read-out: HepG2 tox IC50; for HepG2 cytotoxicity 12pt dose response: Maximum inhibition (%): 12pt dose response
[2] = test system: P. berghei liver stage (PbLuc); assay: P. berghei luciferase liver stage (PbLuc) assay in HepG2-A16-CD81 hepatocytes; type: cell-based, Plasmodium berghei; details: Plasmodium berghei; for Emax: 12pt dose response, maximum inhibition
[3] = target: recombinant firefly luciferase (Photinus pyralis, UniProt P08659); assay: biochemical; details: for Emax: maximum inhibition, read-out: rLuc inhibition dose response: Maximum inhibition (%)
[4] = HepG2 cytotoxicity screening (CellTiter-Glo); details: human, uninfected HepG2-A16-CD81 (EGFP) hepatocytes
[5] = HepG2-A16-CD81, 48 h, 48 h liver stage, HepG2-A16-CD81, read-out: Pbluc (EEF) IC50
[6] = HepG2-A16-CD81, 12pt dose response, read-out: PbLuc 12pt dose response: IC50
[7] = dose response, read-out: rLuc inhibition dose response: IC50

Sequence of recombinant firefly luciferase (P08659 whole entry): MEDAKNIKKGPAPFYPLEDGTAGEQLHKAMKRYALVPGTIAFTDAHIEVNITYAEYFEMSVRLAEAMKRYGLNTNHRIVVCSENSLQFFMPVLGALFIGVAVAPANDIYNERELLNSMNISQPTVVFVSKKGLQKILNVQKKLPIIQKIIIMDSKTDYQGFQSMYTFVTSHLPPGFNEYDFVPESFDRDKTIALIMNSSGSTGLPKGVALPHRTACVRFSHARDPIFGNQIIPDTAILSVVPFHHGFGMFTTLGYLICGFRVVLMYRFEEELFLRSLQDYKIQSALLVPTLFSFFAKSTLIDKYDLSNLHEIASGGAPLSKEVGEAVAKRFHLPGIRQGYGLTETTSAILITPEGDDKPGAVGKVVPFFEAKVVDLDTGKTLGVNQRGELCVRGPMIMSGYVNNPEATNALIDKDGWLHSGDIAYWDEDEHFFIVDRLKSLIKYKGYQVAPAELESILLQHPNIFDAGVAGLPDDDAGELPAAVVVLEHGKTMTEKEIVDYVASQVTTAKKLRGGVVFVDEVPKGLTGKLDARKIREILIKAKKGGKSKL

| SMILES | IC50 [1] [µM] | IC50 [2, 5] [µM] | IC50 ([3]; read-out: rLuc IC50) [µM] | IC50 [4] [µM] | HepG2 Cytotoxicity primary screen (2uM): % Inhibition [1] [%] | HepG2 cytotoxicity 12pt dose response: Maximum inhibition (%) [1] [%] | IC50 [2, 6] [µM] | Emax ([2]; HepG2-A16-CD81, 48 h) [%] | Emax ([3]; dose response) [%] | IC50 [3, 7] [µM] | inhibition at 2 µM [4] [%] |
| --- | --- | --- | --- | --- | --- | --- | --- | --- | --- | --- | --- |
| CNC(=O)CCC(=O)N1CCOC(c2ccc3cc(OC)ccc3c2)C1 (stereo not shown) [DDD01251007] | > 25 | 0.000954 | 23.5 |  |  |  |  |  |  |  |  |
| COc1ccc2cc(C3CN(C(=O)N(C)C)CCO3)ccc2c1 (stereo not shown) [DDD01257372] | > 25 | < 0.000141 | 3.45 |  |  |  |  |  |  |  |  |
| COC1CCN(c2ccc(NC(=O)C3CC3)cc2C(F)(F)F)CC1 [UCSD-0582177] |  |  |  | > 25 | 12.40 | 23 | 14.7 | 87.5 | 16.4 | > 25 |  |
| CCc1cccc(N2CCC(NC(=O)c3ccco3)CC2)c1 [UCSD-0587427] |  |  |  | > 25 | 4.14 | 3.68 | 11.1 | 87.3 | 11.1 | > 25 |  |
| Cn1cnc2c1CCN(Cc1csc(-c3ccccc3F)n1)C2 [UCSD-0598805] |  |  |  | > 25 |  | 6.01 | < 0.000141 | 84.3 | 81.2 | 15 | 0.19 |
| COc1cccc(CN2CCN(c3ccc4nncn4n3)C(C)C2)c1 (stereo not shown) [UCSD-0601459] |  |  |  | > 25 | -7.20 | 49.9 | 12.6 | 92.1 | 0.876 | > 25 |  |
| O=C(O)CSc1nnc(-c2cn[nH]c2)n1-c1ccccc1C(F)(F)F [UCSD-0830442] |  |  |  | > 50 |  | 4.76 | 5.54 |  |  |  | 6.23 |
| COc1ccc(F)c(CN2CCCC(O)(CNCC(C)(C)C)C2=O)c1 (stereo not shown) [UCSD-0830878] |  |  |  | > 50 |  | -11.6 | 44.7 | 86.4 |  |  | 5.34 |
| CN1CCCC(CCC(=O)N2CCc3sc(C(=O)N(C)C)cc3C2)C1 (stereo not shown) [UCSD-0833754] |  |  |  | > 50 |  | 3.22 | > 50 | 38.7 |  |  | -1.19 |
| NC(=O)CCn1cc(CNCc2csc(N)n2)c2ccccc21 [UCSD-0835992] |  |  |  | > 50 |  | 10.2 | > 50 | 17.4 |  |  | 9.68 |
| COc1ccccc1C1CCN(c2ccc3cc[nH]c3n2)CC1 [UCSD-0836069] |  |  |  | 31.8 |  | 60.6 | 3.52 | 93.5 |  |  | 5.11 |
| Cc1n[nH]c(CN2CCN(c3ncnc4scc(C)c34)CC2)c1Cl [UCSD-0836325] |  |  |  | > 16.6 |  | 66.1 | 4.49 | 96 |  |  | 27.1 |
| COc1ccc(OCCN2CCC(N3CCNC3=O)CC2)cc1 [UCSD-0840477] |  |  |  | > 50 |  | 42.1 | 21.2 | 62.9 |  |  | 38.5 |
| Cc1cccc(NC(=O)c2[nH]nc(C(C)C)c2Br)n1 [UCSD-0842406] |  |  |  | > 50 |  | 40.5 | 0.0268 | 101 |  |  | 17.4 |
| Cc1ncsc1C(=O)NC1CCN(Cc2ccc(C(F)(F)F)cc2)CC1 [UCSD-0842554] |  |  |  | > 50 |  | 41.9 | 14.2 | 87.4 |  |  | 9.14 |
| CC(=O)Nc1nc(C(=O)N2CCCC(n3cncn3)C2)cs1 (stereo not shown) [UCSD-0843277] |  |  |  | > 50 |  | -5.65 | 21.5 | 81.2 |  |  | -7.07 |
| CC(C)(C)c1nc(CN2CCCC(Cn3cncn3)C2)cs1 (stereo not shown) [UCSD-0846727] |  |  |  | > 50 |  | -16.6 | > 50 | 24.9 |  |  | 5.83 |
